Test results as given in patent publication US10160748B2 (AbbVie Inc., priority 2015, dated 2018).

biological target: TNFα trimer (Homo sapiens, UniProt P01375); assay: TNFα FP Competitive Binding Assay; conditions: FP binding assay; 20 nM TNFα trimer, 1 nM OregonGreen488 probe; read-out: TNF IC50
Protocol: TNFα FP Competitive Binding Assay
• 1. Assay Buffer: Prepare 1× Assay Buffer (Water with 47 mM HEPES, 47 mM NaCl, 0.9 mM EDTA, 0.0071% Triton X-100) by adding 25 mL of 1 M HEPES, 5 mL of 5 M NaCl, 1 mL of 0.5 M EDTA, and 375 μL of a 10% Triton X-100 stock to a fresh 500 mL bottle of water. • 2. Assay Mixture: Prepare fresh Assay Mixture containing 20 nM TNFα trimer (60 nM protein) and 1 nM 2′,7′-difluoro-3′,6′-dihydroxy-N-(2-(2-(2-((4-(isoquinolin-8-yl)-3-(4-(isoquinolin-8-yl)phenethoxy)benzyl)oxy)ethoxy)ethoxy)ethyl)-3-oxo-3H-spiro[isobenzofuran-1,9′-xanthene]-5-carboxamide probe in 1× Assay Buffer. Compound Plate Preparation Manual 12-Point 1:3 Dilution Plates: (384 Well Polypropylene Plates)
Top concentration of compounds, 10 mM in DMSO, dispensed in rows A-O in columns 1 and 13. Compounds are serially diluted 1:3 with DMSO in columns 2-12 or 14-24 using a 16-channel Matrix pipettor. Plates stored at −20° C.
Discovery Preps 12-Point 1:3 Dilution Plates: (384 Well Assay Plates)
Top concentration, 5 mM in DMSO, of compounds placed in rows A-O in columns 1 and 13. Compounds are serially diluted 1:3 with DMSO in columns 2-12 or 14-24. Compound solutions are dispensed into replicate assay plates at 410 nL per well. Plates stored at 4° C.
TNFα FP Competitive Binding Assay Protocol
• 1. Compound plates warmed to rt. • 2. Fresh Assay Mixture is prepared. • 3. Assay Mixture (20 μL) is dispensed each well of 384 assay plates using a Thermo Multidrop Combi or 16-channel Matrix pipettor. If Manual 12-point 1:3 Dilution Plates are to be tested, Assay Mix is dispensed into empty plates. Discovery Preps 12-point 1:3 Dilution Plates already contain 410 nL compound solution in DMSO. • 4. For Manual 12-point 1:3 Dilution Plates, 0.7 μL is manually transferred using a 16-channel Matrix pipettor to replicate assay plates containing 20 μL Assay Mixture for a final top compound concentration of 338 μM (3.4% DMSO). • 5. For Discovery Preps 12-point 1:3 Dilution Plates, 20 μL Assay Mixture added the 410 nL compound solution already in the plates yields a final top compound concentration of 100 μM (2.0% DMSO). • 6. Background subtraction controls are wells P1-P8 containing only Assay Buffer. The low % inhibition controls are wells P9-P16 containing only Assay Mix. The high % inhibition are wells P17-P24 containing only 1 nM 2′,7′-difluoro-3′,6′-dihydroxy-N-(2-(2-(2-((4-(isoquinolin-8-yl)-3-(4-(isoquinolin-8-yl)phenethoxy)benzyl)oxy)ethoxy)ethoxy)ethyl)-3-oxo-3H-spiro[isobenzofuran-1,9′-xanthene]-5-carboxamide probe in 1× Assay Buffer. • 7. Plates are incubated at rt for 18-24 h in 37° C. incubator (CO2 is off). • 8. Prior to reading the assay, the plates are placed in a dark cabinet to equilibrate at rt for one hour. • 9. Background-subtracted fluorescence polarization (mP) is measured using a PerkinElmer Envision plate reader. • 10. Raw data is entered into Assay Explorer and dose-response curves are generated using a variable slope curve. Supplies, Materials, and Reagents

Chain of TNFα trimer (P01375 77-233 limits assumed): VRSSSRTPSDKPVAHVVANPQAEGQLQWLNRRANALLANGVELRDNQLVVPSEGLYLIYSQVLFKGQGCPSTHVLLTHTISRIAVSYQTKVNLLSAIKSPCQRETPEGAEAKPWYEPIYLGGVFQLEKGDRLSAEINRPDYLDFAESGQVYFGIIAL

Question: With `Cn1c(=O)c2ccc(-c3cnc(N4CCOC(C)(C)C4)nc3)cc2n1Cc1ccccc1OC(F)F` [Example 2, 1-(2-(Difluoromethoxy)benzyl)-6-(2-(2,2-dimethylmorpholino)pyrimidin-5-yl)-2-methyl-1H-indazol-3(2H)-one] as the compound, how does the IC50 read?
Answer: < 1 µM

Question: For `Cn1c(=O)c2ccc(-c3cnc(N4CCN(C(N)=O)CC4)nc3)cc2n1Cc1ccccc1OC(F)F` [Example 2.1], which IC50 is on record?
Answer: < 1 µM

Question: With `COC[C@H]1CCCN1c1ncc(-c2ccc3c(=O)n(C)n(Cc4ccccc4OC(F)F)c3c2)cn1` [Example 2.2] as the compound, how does the IC50 read?
Answer: < 1 µM

Question: With `CC(=O)N1CCN(c2ncc(-c3ccc4c(=O)n(C)n(Cc5ccccc5OC(F)F)c4c3)cn2)CC1` [Example 2.3] as the compound, how does the IC50 read?
Answer: < 1 µM

Question: With `Cn1c(=O)c2ccc(-c3cnc(N4CC5(COC5)C4)nc3)cc2n1Cc1ccccc1OC(F)F` [Example 2.4] as the compound, how does the IC50 read?
Answer: 1 to 10 µM

Question: For `Cn1c(=O)c2ccc(-c3cnc(N4CC[C@@H](O)C4)nc3)cc2n1Cc1ccccc1OC(F)F` [Example 2.5], which IC50 is on record?
Answer: > 10 µM

Question: `Cn1c(=O)c2ccc(-c3cnc(N4CC[C@@H](C(=O)O)C4)nc3)cc2n1Cc1ccccc1OC(F)F` [Example 2.6] was tested. Which IC50 did it give?
Answer: > 10 µM

Question: Which IC50 does the source give for `Cn1c(=O)c2ccc(-c3cnc(NCC4CNC(=O)C4)nc3)cc2n1Cc1ccccc1OC(F)F` (stereo not shown) [Example 2.7] here?
Answer: 1 to 10 µM

Question: How did the IC50 turn out when `Cn1c(=O)c2ccc(-c3cnc(N4CC(C5COC5)C4)nc3)cc2n1Cc1ccccc1OC(F)F` [Example 2.8] was run?
Answer: 1 to 10 µM

Question: For `Cn1c(=O)c2ccc(-c3cnc(N4CC(O)C4)nc3)cc2n1Cc1ccccc1OC(F)F` [Example 2.9], which IC50 is on record?
Answer: 1 to 10 µM

Question: Which IC50 does the source give for `Cn1c(=O)c2ccc(-c3cnc(NC4COC4)nc3)cc2n1Cc1ccccc1OC(F)F` [Example 2.10] here?
Answer: 1 to 10 µM

Question: With `Cn1c(=O)c2ccc(-c3cnc(N4CC(CO)C4)nc3)cc2n1Cc1ccccc1OC(F)F` [Example 2.11] as the compound, how does the IC50 read?
Answer: 1 to 10 µM

Question: How did the IC50 turn out when `Cn1c(=O)c2ccc(-c3cnc(NCCO)nc3)cc2n1Cc1ccccc1OC(F)F` [Example 2.12] was run?
Answer: 1 to 10 µM

Question: For `Cn1c(=O)c2ccc(-c3cnc(N4CC(C(=O)O)C4)nc3)cc2n1Cc1ccccc1OC(F)F` [Example 2.13], which IC50 is on record?
Answer: > 10 µM

Question: How did the IC50 turn out when `Cn1c(=O)c2ccc(-c3cnc(N4CC5(CC5C(=O)O)C4)nc3)cc2n1Cc1ccccc1OC(F)F` (stereo not shown) [Example 2.14] was run?
Answer: > 10 µM

Question: How did the IC50 turn out when `Cn1c(=O)c2ccc(-c3cnc(N4CC[C@H](C(=O)O)C4)nc3)cc2n1Cc1ccccc1OC(F)F` [Example 2.15] was run?
Answer: > 10 µM

Question: How did the IC50 turn out when `CN1CC(CNc2ncc(-c3ccc4c(=O)n(C)n(Cc5ccccc5OC(F)F)c4c3)cn2)CC1=O` (stereo not shown) [Example 2.16] was run?
Answer: 1 to 10 µM

Question: How did the IC50 turn out when `Cn1c(=O)c2ccc(-c3cnc(N4CC5(CC(C(=O)O)C5)C4)nc3)cc2n1Cc1ccccc1OC(F)F` [Example 2.17] was run?
Answer: 1 to 10 µM

Question: Which IC50 does the source give for `Cn1c(=O)c2ccc(-c3cnc(N4CC(CC(=O)O)C4)nc3)cc2n1Cc1ccccc1OC(F)F` [Example 2.18] here?
Answer: > 10 µM

Question: For `Cn1c(=O)c2ccc(-c3cnc(NC4CCCCNC4=O)nc3)cc2n1Cc1ccccc1OC(F)F` (stereo not shown) [Example 2.19], which IC50 is on record?
Answer: 1 to 10 µM

Question: `Cn1c(=O)c2ccc(-c3cnc(NC4CCOC4)nc3)cc2n1Cc1ccccc1OC(F)F` (stereo not shown) [Example 2.20] was tested. Which IC50 did it give?
Answer: 1 to 10 µM

Question: How did the IC50 turn out when `Cn1c(=O)c2ccc(-c3cnc(NC4CCCOC4)nc3)cc2n1Cc1ccccc1OC(F)F` (stereo not shown) [Example 2.21] was run?
Answer: 1 to 10 µM

Question: How did the IC50 turn out when `COCCCNc1ncc(-c2ccc3c(=O)n(C)n(Cc4ccccc4OC(F)F)c3c2)cn1` [Example 2.22] was run?
Answer: 1 to 10 µM

Question: Which IC50 does the source give for `Cn1c(=O)c2ccc(-c3cnc(N4CCN5C(=O)CCC5C4)nc3)cc2n1Cc1ccccc1OC(F)F` (stereo not shown) [Example 2.23] here?
Answer: < 1 µM

Question: How did the IC50 turn out when `Cn1c(=O)c2ccc(-c3cnc(N[C@@H]4CCOC4)nc3)cc2n1Cc1ccccc1OC(F)F` [Example 2.24] was run?
Answer: 1 to 10 µM

Question: With `Cn1c(=O)c2ccc(-c3cnc(N4CCN5C(=O)OC[C@H]5C4)nc3)cc2n1Cc1ccccc1OC(F)F` [Example 2.25] as the compound, how does the IC50 read?
Answer: < 1 µM

Question: How did the IC50 turn out when `Cn1c(=O)c2ccc(-c3cnc(N4CCN5C(=O)OC[C@@H]5C4)nc3)cc2n1Cc1ccccc1OC(F)F` [Example 2.26] was run?
Answer: < 1 µM

Question: `Cn1c(=O)c2ccc(-c3cnc(N4CCN5C(=O)NCC5C4)nc3)cc2n1Cc1ccccc1OC(F)F` (stereo not shown) [Example 2.27, 7-(5-(1-(2-(Difluoromethoxy)benzyl)-2-methyl-3-oxo-2,3-dihydro-1H-indazol-6-yl)pyrimidin-2-yl)hexahydroimidazo[1,5-a]pyrazin-3(2H)-one] was tested. Which IC50 did it give?
Answer: < 1 µM

Question: `Cn1c(=O)c2ccc(-c3cnc(N4CCC(c5nsc(=O)[nH]5)CC4)nc3)cc2n1Cc1ccccc1OC(F)F` [Example 2.28] was tested. Which IC50 did it give?
Answer: 1 to 10 µM

Question: How did the IC50 turn out when `CC(=O)N1CC[C@H](Nc2ncc(-c3ccc4c(=O)n(C)n(Cc5ccccc5OC(F)F)c4c3)cn2)C1` [Example 3, (S)-6-(2-((1-Acetylpyrrolidin-3-yl)amino)pyrimidin-5-yl)-1-(2-(difluoromethoxy)benzyl)-2-methyl-1H-indazol-3(2H)-one] was run?
Answer: 1 to 10 µM

Question: For `Cn1c(=O)c2ccc(-c3cc(N4CCOCC4)ncc3Cl)cc2n1Cc1cccc(F)c1` [Example 3.1], which IC50 is on record?
Answer: > 10 µM

Question: How did the IC50 turn out when `Cn1c(=O)c2ccc(-c3cnc(CN4CC(C(=O)O)C4)nc3)cc2n1Cc1ccccc1OC(F)F` [Example 4, 1-((5-(1-(2-(Difluoromethoxy)benzyl)-2-methyl-3-oxo-2,3-dihydro-1H-indazol-6-yl)pyrimidin-2-yl)methyl)azetidine-3-carboxylic acid] was run?
Answer: > 10 µM

Question: With `Cn1c(=O)c2ccc(-c3cc(N4CCOCC4)ncc3Cl)cc2n1Cc1ccccc1OC(F)F` [Example 4.1] as the compound, how does the IC50 read?
Answer: > 10 µM

Question: Which IC50 does the source give for `Cn1c(=O)c2ccc(-c3cnc(N4CCOCC4)nc3)cc2n1Cc1ccccc1OC(F)F` [Example 5, 1-(2-(Difluoromethoxy)benzyl)-2-methyl-6-(2-morpholinopyrimidin-5-yl)-1H-indazol-3(2H)-one] here?
Answer: < 1 µM

Question: `Cn1c(=O)c2ccc(-c3cnc(N4CCNC(=O)C4)nc3)cc2n1Cc1ccccc1OC(F)F` [Example 5.1] was tested. Which IC50 did it give?
Answer: 1 to 10 µM

Question: With `Cn1c(=O)c2ccc(-c3ccc(N4CCOCC4)nc3)cc2n1Cc1ccccc1OC(F)F` [Example 5.2] as the compound, how does the IC50 read?
Answer: 1 to 10 µM

Question: With `Cn1c(=O)c2ccc(-c3ccc(N4CCNC(=O)C4)nc3)cc2n1Cc1ccccc1OC(F)F` [Example 5.3] as the compound, how does the IC50 read?
Answer: 1 to 10 µM

Question: Which IC50 does the source give for `COc1ncc(-c2ccc3c(=O)n(C)n(Cc4ccccc4OC(F)F)c3c2)cn1` [Example 5.4] here?
Answer: 1 to 10 µM

Question: `Cn1c(=O)c2ccc(-c3cnc(N4CCC(C(=O)O)CC4)nc3)cc2n1Cc1ccccc1OC(F)F` [Example 5.5] was tested. Which IC50 did it give?
Answer: 1 to 10 µM

Question: How did the IC50 turn out when `Cn1c(=O)c2ccc(-c3ccnc(N4CCOCC4)c3)cc2n1Cc1ccccc1OC(F)F` [Example 5.6] was run?
Answer: > 10 µM

Question: How did the IC50 turn out when `Cn1c(=O)c2ccc(-c3cnn(C4CCOCC4)c3)cc2n1Cc1ccccc1OC(F)F` [Example 5.7] was run?
Answer: > 10 µM

Question: How did the IC50 turn out when `O=c1[nH]n(Cc2ccccc2OC(F)F)c2cc(-c3cnc(N4CCOCC4)nc3)ccc12` [Example 6.1, 1-(2-(difluoromethoxy)benzyl)-6-(2-morpholinopyrimidin-5-yl)-1H-indazol-3(2H)-one] was run?
Answer: > 10 µM

Question: For `Cn1c(=O)c2ccc(-c3cnc(N4CCOCC4)nc3)cc2n1Cc1cc(Cl)ccc1Cl` [Example 7.1], which IC50 is on record?
Answer: < 1 µM

Question: `Cn1c(=O)c2ccc(-c3cnc(N4CCC(C(=O)O)CC4)nc3)cc2n1Cc1cc(Cl)ccc1Cl` [Example 7.2] was tested. Which IC50 did it give?
Answer: 1 to 10 µM

Question: `Cn1c(=O)c2ccc(-c3cnc(N4CCOCC4)nc3)cc2n1Cc1c(Cl)cccc1Cl` [Example 8.1] was tested. Which IC50 did it give?
Answer: 1 to 10 µM

Question: `Cn1c(=O)c2ccc(-c3cnc(N4CCNC(=O)C4)nc3)cc2n1Cc1c(Cl)cccc1Cl` [Example 8.2] was tested. Which IC50 did it give?
Answer: 1 to 10 µM

Question: How did the IC50 turn out when `Cn1c(=O)c2ccc(-c3cnc(N4CCOCC4)nc3)cc2n1Cc1cc(CO)ccc1OC(F)F` [Example 9, 1-(2-(Difluoromethoxy)-5-(hydroxymethyl)benzyl)-2-methyl-6-(2-morpholinopyrimidin-5-yl)-1H-indazol-3(2H)-one] was run?
Answer: < 1 µM

Question: `O=c1[nH]n(Cc2cc(Cl)ccc2Cl)c2cc(-c3cnc(N4CCOCC4)nc3)ccc12` [Example 9.1] was tested. Which IC50 did it give?
Answer: > 10 µM

Question: For `CCn1c(=O)c2ccc(-c3cnc(N4CCOCC4)nc3)cc2n1Cc1ccccc1OC(F)F` [Example 10, 1-(2-(Difluoromethoxy)benzyl)-2-ethyl-6-(2-morpholinopyrimidin-5-yl)-1H-indazol-3(2H)-one], which IC50 is on record?
Answer: 1 to 10 µM
